Results as given in ChEMBL document CHEMBL1201862, “PubChem BioAssay data set” (2004).
“And” between values parts separate entries of the source, which are not always exact repeats. Equal entries are not always repeated.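 How tested: cells in 96-well plates exposed to compound for 48 hours at five concentrations. Abbreviation: GI50, concentration required for 50% inhibition of growth.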 The source made the active and inactive calls. No stated cut-off is given here; in the data, active = GI50 up to about 1.1 µM and inactive = higher.

Tests used:
Test in all cases: growth of human tumour cells (NCI), 48 h
HCT-15 = tested on: HCT-15
ACHN = tested on: ACHN
OVCAR-4 = tested on: OVCAR-4
NCI-H522 = tested on: NCI-H522
MDA-N = tested on: MDA-N
HT-29 = tested on: HT-29
SN12C = tested on: SN12C
RPMI-8226 = tested on: RPMI-8226
COLO 205 = tested on: COLO 205
SF-268 = tested on: SF-268
EKVX = tested on: EKVX
IGROV-1 = tested on: IGROV-1
BT-549 = tested on: BT-549
SK-OV-3 = tested on: SK-OV-3
A549 = tested on: A549
SK-MEL-5 = tested on: SK-MEL-5
SK-MEL-28 = tested on: SK-MEL-28
HL-60 = tested on: HL-60
HCC 2998 = tested on: HCC 2998

SMILES	GI50 (HCT-15) [µM]	GI50 (ACHN)	GI50 (OVCAR-4)	GI50 (NCI-H522)	GI50 (MDA-N)	GI50 (HT-29)	GI50 (SN12C)	GI50 (RPMI-8226)	GI50 (COLO 205)	GI50 (SF-268)	GI50 (EKVX)	GI50 (IGROV-1)	GI50 (BT-549)	GI50 (SK-OV-3)	GI50 (A549)	GI50 (SK-MEL-5)	GI50 (SK-MEL-28)	GI50 (HL-60)	GI50 (HCC 2998)
Oc1cc2c3c(c1)c1cc4c(cc1c[n+]3CC2)OCO4	13.6	3.1 µM (inactive)	3.64 µM (inactive)	0.492 µM (active)	8.63 µM (inactive)	4.6 µM (inactive)	1.29 µM (inactive)	1.77 µM (inactive)	3.73 µM (inactive)	0.224 µM (active)	7.73 µM (inactive)	2.4 µM (inactive)	1.77 µM (inactive)	16.1 µM (inactive)	5.71 µM (inactive)	4.97 µM (inactive)	7.82 µM (inactive)	3.97 µM (inactive)	4.4 µM (inactive)
O=C1C(Cl)C2(CC(/C=C/c3ccccc3)=NN2c2cccc(S(=O)(=O)O)c2)N1c1nc2ccccc2s1 (stereo not given)	15.9	16.6 µM (inactive)	16.4 µM (inactive)	6.53 µM (inactive)	24.2 µM (inactive)	19.4 µM (inactive)	17.2 µM (inactive)	13.8 µM (inactive)	19.2 µM (inactive)	20 µM (inactive)	19.2 µM (inactive)	8.55 µM (inactive)	14.8 µM (inactive)	–	15.3 µM (inactive)	15.5 µM (inactive)	44.8 µM (inactive)	14.9 µM (inactive)	14.4 µM (inactive)
O=c1c(-c2ccc(Cl)cc2)nnc2n(Cc3ccccc3)c3ccccc3n12	> 100	21.7 µM (inactive)	5.94 µM (inactive)	16.8 µM (inactive)	> 100 µM (inactive)	52.6 µM (inactive)	82.2 µM (inactive)	–	> 100 µM (inactive)	23.3 µM (inactive)	38.4 µM (inactive)	18.7 µM (inactive)	22 µM (inactive)	–	25.5 µM (inactive)	41.1 µM (inactive)	51.6 µM (inactive)	50 µM (inactive)	> 100 µM (inactive)
O=C(N1CCN(c2ccccc2)CC1)N(C(=O)C1(c2ccc(Cl)cc2)CCCC1)S(=O)(=O)c1ccccc1	25.1	14 µM (inactive)	24.1 µM (inactive)	15.4 µM (inactive)	22.1 µM (inactive)	27.9 µM (inactive)	28.3 µM (inactive)	38.3 µM (inactive)	24.7 µM (inactive)	39.9 µM (inactive)	21.1 µM (inactive)	–	27.8 µM (inactive)	30 µM (inactive)	36.2 µM (inactive)	19.9 µM (inactive)	40.8 µM (inactive)	27.7 µM (inactive)	23.9 µM (inactive)
Cc1cn(CC2=NCC(C)(C)CN2)c(=O)[nH]c1=O	> 100	> 100 µM (inactive)	–	> 100 µM (inactive)	> 100 µM (inactive)	> 100 µM (inactive)	> 100 µM (inactive)	–	> 100 µM (inactive)	> 100 µM (inactive)	> 100 µM (inactive)	> 100 µM (inactive)	> 100 µM (inactive)	> 100 µM (inactive)	> 100 µM (inactive)	> 100 µM (inactive)	> 100 µM (inactive)	> 100 µM (inactive)	> 100 µM (inactive)
CCNC(=S)/N=c1\sc(NCC)nc2sc3c(c12)CCN(N1CCc2c(sc4nc(NCC)s/c(=N\C(=S)NCC)c24)C1)C3	> 100	62.8 µM (inactive)	86.1 µM (inactive)	65.6 µM (inactive)	91.4 µM (inactive)	41.1 µM (inactive)	> 100 µM (inactive)	–	57.4 µM (inactive)	> 100 µM (inactive)	> 100 µM (inactive)	39.8 µM (inactive)	> 100 µM (inactive)	> 100 µM (inactive)	82.4 µM (inactive)	31.8 µM (inactive)	92 µM (inactive)	98.2 µM (inactive)	> 100 µM (inactive)
CC(=O)Oc1ccc(-c2cc3ccccc3oc2=O)cc1OC(C)=O	10.7	16.8 µM (inactive)	51.3 µM (inactive)	3.78 µM (inactive)	25.8 µM (inactive)	36 µM (inactive)	53.7 µM (inactive)	12.7 µM (inactive)	43.5 µM (inactive)	27.9 µM (inactive)	21.8 µM (inactive)	–	35.2 µM (inactive)	–	14.8 µM (inactive)	–	43.5 µM (inactive)	1.89 µM (inactive)	18.7 µM (inactive)
NCCOCC(N)C(=O)O (stereo not given)	> 100	> 100 µM (inactive)	> 100 µM (inactive)	> 100 µM (inactive)	> 100 µM (inactive)	> 100 µM (inactive)	> 100 µM (inactive)	–	> 100 µM (inactive)	> 100 µM (inactive)	> 100 µM (inactive)	> 100 µM (inactive)	> 100 µM (inactive)	> 100 µM (inactive)	> 100 µM (inactive)	> 100 µM (inactive) and > 95.7 µM (inactive)	> 100 µM (inactive)	> 100 µM (inactive)	> 100 µM (inactive)
COc1ccc(-c2nnc(CCCCCCCCc3nnc(-c4ccc(OC)cc4)o3)o2)cc1	> 100	> 100 µM (inactive)	> 100 µM (inactive)	84.3 µM (inactive)	> 100 µM (inactive)	> 100 µM (inactive)	> 100 µM (inactive)	–	> 100 µM (inactive)	> 100 µM (inactive)	> 100 µM (inactive)	> 100 µM (inactive)	16.7 µM (inactive)	54.2 µM (inactive)	> 100 µM (inactive)	> 100 µM (inactive)	> 100 µM (inactive)	> 100 µM (inactive)	> 100 µM (inactive)
CCN1CCC(O)(/C=C/c2ccc(OC)cc2)C(C(=O)/C=C/c2ccc(OC)cc2)C1 (stereo not given)	> 10	13.7 µM (inactive)	13.3 µM (inactive)	12.5 µM (inactive)	7.5 µM (inactive)	7.16 µM (inactive)	14.8 µM (inactive)	2.26 µM (inactive)	4.2 µM (inactive)	13.8 µM (inactive)	13.6 µM (inactive)	13.7 µM (inactive)	15.5 µM (inactive)	10.6 µM (inactive)	16.6 µM (inactive)	–	12 µM (inactive)	3.15 µM (inactive)	14.9 µM (inactive)
NC1=C(c2nc(-c3ccccc3)cs2)C(c2ccco2)c2c(c3ccccc3oc2=O)O1 (stereo not given)	> 100	> 100 µM (inactive)	> 100 µM (inactive)	76.2 µM (inactive)	> 100 µM (inactive)	> 100 µM (inactive)	> 100 µM (inactive)	–	> 100 µM (inactive)	> 100 µM (inactive)	> 100 µM (inactive)	> 100 µM (inactive)	> 100 µM (inactive)	> 100 µM (inactive)	> 100 µM (inactive)	> 100 µM (inactive)	> 100 µM (inactive)	> 100 µM (inactive)	> 100 µM (inactive)
